Assay: Human microsomal stability assay
Type: in vitro ADME
Details: human liver microsomes, 1 μM test compound, 0.5 mg/mL protein, 37° C., pH 7.4
Experimental: Human Microsomal Stability Assay
Human liver microsomes (Cat.NO.: 452117, Corning, USA) were preincubated with test compound for 10 minutes at 37° C. in 100 mM potassium phosphate buffer, pH 7.4. The reactions were initiated by adding NADPH regenerating system. The final incubation mixtures contained 1 μM test compound, 0.5 mg/mL liver microsomal protein, 1 mM MgCl2, 1 mM NADP, 1 unit/mL isocitric dehydrogenase and 6 mM isocitric acid in 100 mM potassium phosphate buffer, pH 7.4. After incubation times of 0, 3, 6, 9, 15 and 30 minutes at 37° C., 300 μL of cold ACN (including internal standard) was added to 100 μL incubation mixture to terminate the reaction. Following precipitation and centrifugation, 100 uL supernatant will be taken out and added 300 uL water. The amount of compound remaining in the samples was determined by LC-MS/MS. Controls of no NADPH regenerating system at zero and 30 minutes were also prepared and analyzed. The results were categorized as: low (7.0 mL/min/kg), medium (7.0-16.2 mL/min/kg) and high (16.2-23.2 mL/min/kg).

Row | Structure (SMILES) | CL (h)
1 | CC1(N)CCN(c2ccc3c(n2)CN2CCN(c4ccc(C#N)c5ncccc45)C[C@H]32)CC1 [Example 4B, 5-[(2S)-11-(4-amino-4-methyl-1-piperidyl)-4,7,10-triazatricyclo[7.4.0.02,7]trideca-1(9),10,12-trien-4-yl]quinoline-8-carbonitrile] | 8.1 mL/min/kg
2 | N#Cc1ccc(N2CCN3Cc4cc(N5CCNCC5)ncc4C3C2)c2cccnc12 (centres unmarked) [Example 1, 5-(11-Piperazin-1-yl-4,7,12-triazatricyclo[7.4.0.02,7]trideca-1(9),10,12-trien-4-yl)quinoline-8-carbonitrile] | 6.2 mL/min/kg
